Data as given in ChEMBL document CHEMBL5620401, “Design, synthesis, and biological evaluation of novel spirocyclic compounds as potential anti-glioblastoma agents” (Eur J Med Chem, 2023).
One block for each compound: values may come before it. Activity calls are given as the source filed them. No cut-off for these calls is given here.

Legend:
[1] = tested on: U-87 MG; assay: Antiproliferative activity against human U87 cells assessed as cell viability measured after 72 hrs by MTT assay; type: functional, cell-based, U-87MG ATCC
[2] = tested on: U-251; assay: Antiproliferative activity against human U-251 cells assessed as cell viability measured after 72 hrs by MTT assay; type: functional, cell-based; conditions: U-251, 72 h
[3] = tested on: U-251; assay: Increase in acetylated p53 level in human U-251 cells at 1 to 5 uM by Western blot analysis; type: functional, cell-based; conditions: dose 1-5 µM
[4] = tested on: U-251; assay: Effect on RIPK1 protein expression in human U-251 cells at 1 to 5 uM measured after 48 hrs by Western blot analysis; type: functional, cell-based; conditions: dose 1-5 µM
[5] = Permeability coefficient of compound by lipid-PAMPA assay; type: ADME; conditions: read-out: Peff
[6] = tested on: U-251; assay: Increase in acetylated p53 level in SIRT1 overexpressed human U-251 cells at 1 to 5 uM by Western blot analysis; type: functional, cell-based; conditions: dose 1-5 µM
[7] = tested on: U-251; assay: Decrease in SIRT1 protein expression in human U-251 cells at 1 to 5 uM by Western blot analysis; type: functional, cell-based; conditions: dose 1-5 µM
[8] = tested on: U-251; assay: Induction of apoptosis in human U-251 cells assessed as necrotic cells at 2.5 uM measured after 48 hrs by Annexin V/PI analysis (reference value: 0%); type: functional
[9] = Toxicity in BALB/c mouse xenografted with human U-251 cells assessed as pathological changes in spleen at 60 mg/kg, ip treated for 5 weeks by hematoxylin and eosin staining based assay; type: organism-based; conditions: in vivo, 840 h
[10] = tested on: U-251; assay: Induction of apoptosis in human U-251 cells assessed as increase in BCL2 homologous antagonist/killer (Bak) expression measured after 48 hrs by Western blot analysis; type: functional, cell-based; conditions: dose 1-5 µM
[11] = Toxicity in BALB/c mouse xenografted with human U-251 cells assessed as body weight change at 60 mg/kg, ip treated for 5 weeks; type: organism-based; conditions: in vivo, 840 h
[12] = tested on: U-251; assay: Anti-GBM effect in human U-251 cells xenografted in BALB/c mouse model assessed as inhibition of tumor growth at 60 mg/kg, ip treated for 5 weeks; type: functional, organism-based
[13] = tested on: U-251; assay: Induction of apoptosis in human U-251 cells assessed as early apoptotic cells at 2.5 uM measured after 48 hrs by Annexin V/PI analysis (reference value: 3.1%); type: functional
[14] = Toxicity in BALB/c mouse xenografted with human U-251 cells assessed as pathological changes in heart at 60 mg/kg, ip treated for 5 weeks by hematoxylin and eosin staining based assay; type: organism-based; conditions: in vivo, 840 h
[15] = tested on: U-251; assay: Effect on GSDMD protein expression in human U-251 cells at 1 to 5 uM measured after 48 hrs by Western blot analysis; type: functional, cell-based; conditions: dose 1-5 µM
[16] = Toxicity in BALB/c mouse xenografted with human U-251 cells assessed as pathological changes in kidney at 60 mg/kg, ip treated for 5 weeks by hematoxylin and eosin staining based assay; type: organism-based; conditions: in vivo, 840 h
[17] = tested on: U-251; assay: Induction of apoptosis in human U-251 cells assessed as late apoptotic cells at 5 uM measured after 48 hrs by Annexin V/PI analysis (reference value: 0.7%); type: functional
[18] = tested on: U-251; assay: Effect on caspase 8 protein expression in human U-251 cells at 1 to 5 uM measured after 48 hrs by Western blot analysis; type: functional, cell-based; conditions: dose 1-5 µM
[19] = tested on: U-251; assay: Induction of apoptosis in human U-251 cells assessed as viable cells at 5 uM measured after 48 hrs by Annexin V/PI analysis (reference value: 96.2%); type: functional; conditions: read-out: Activity
[20] = tested on: U-251; assay: Induction of apoptosis in human U-251 cells assessed as late apoptotic cells at 1 uM measured after 48 hrs by Annexin V/PI analysis (reference value: 0.7%); type: functional
[21] = tested on: U-251; assay: Increase in caspase 3 expression human U-251 cells measured at 1 to 5 uM after 48 hrs by Western blot analysis; type: functional, cell-based; conditions: dose 1-5 µM
[22] = tested on: U-251; assay: Induction of apoptosis in human U-251 cells assessed as viable cells at 1 uM measured after 48 hrs by Annexin V/PI analysis (reference value: 96.2%); type: functional; conditions: read-out: Activity
[23] = Toxicity in BALB/c mouse xenografted with human U-251 cells assessed as toxicity at 60 mg/kg, ip treated for 5 weeks; type: organism-based; conditions: in vivo, 840 h
[24] = tested on: U-251; assay: Induction of apoptosis in human U-251 cells assessed as late apoptotic cells at 2.5 uM measured after 48 hrs by Annexin V/PI analysis (reference value: 0.7%); type: functional
[25] = tested on: U-251; assay: Induction of apoptosis in human U-251 cells assessed as necrotic cells at 5 uM measured after 48 hrs by Annexin V/PI analysis (reference value: 0%); type: functional
[26] = tested on: U-251; assay: Decrease in SIRT1 gene expression in human U-251 cells at 5 uM measured after 48 hrs incubation by RT-qPCR analysis; type: functional, cell-based
[27] = tested on: U-251; assay: Increase in BCL2 homologous antagonist/killer (Bak) expression human U-251 cells measured at 1 to 5 uM after 48 hrs by Western blot analysis; type: functional, cell-based; conditions: dose 1-5 µM
[28] = tested on: U-251; assay: Anti-GBM effect in human U-251 cells xenografted in BALB/c mouse model assessed as reduction in number of Ki67-positive cells in the tumor at 60 mg/kg, ip treated for 5 weeks by immunohistochemical staining analysis; type: functional, organism-based
[29] = tested on: U-251; assay: Effect on RIPK3 protein expression in human U-251 cells at 1 to 5 uM measured after 48 hrs by Western blot analysis; type: functional, cell-based; conditions: dose 1-5 µM
[30] = tested on: U-251; assay: Induction of apoptosis in human U-251 cells assessed as necrotic cells at 1 uM measured after 48 hrs by Annexin V/PI analysis (reference value: 0%); type: functional
[31] = tested on: U-251; assay: Induction of apoptosis in human U-251 cells assessed as increase in caspase-3 expression measured after 48 hrs by Western blot analysis; type: functional, cell-based; conditions: dose 1-5 µM
[32] = Toxicity in BALB/c mouse xenografted with human U-251 cells assessed as pathological changes in liver at 60 mg/kg, ip treated for 5 weeks by hematoxylin and eosin staining based assay; type: organism-based; conditions: in vivo, 840 h
[33] = tested on: U-251; assay: Effect on ZBP1 protein expression in human U-251 cells at 1 to 5 uM measured after 48 hrs by Western blot analysis; type: functional, cell-based; conditions: dose 1-5 µM
[34] = tested on: U-251; assay: Induction of apoptosis in human U-251 cells assessed as early apoptotic cells at 1 uM measured after 48 hrs by Annexin V/PI analysis (reference value: 3.1%); type: functional
[35] = Toxicity in BALB/c mouse xenografted with human U-251 cells assessed as pathological changes in lung at 60 mg/kg, ip treated for 5 weeks by hematoxylin and eosin staining based assay; type: organism-based; conditions: in vivo, 840 h
[36] = tested on: U-251; assay: Induction of apoptosis in human U-251 cells assessed as increase in p53 expression measured after 48 hrs by Western blot analysis; type: functional, cell-based; conditions: dose 1-5 µM
[37] = tested on: U-251; assay: Inhibition of colony formation in human U-251 cells; type: functional, cell-based
[38] = tested on: U-251; assay: Induction of apoptosis in human U-251 cells assessed as early apoptotic cells at 5 uM measured after 48 hrs by Annexin V/PI analysis (reference value: 3.1%); type: functional
[39] = tested on: U-251; assay: Effect on phosphorylated-[…] protein expression in human U-251 cells at 1 to 5 uM measured after 48 hrs by Western blot analysis; type: functional, cell-based; conditions: dose 1-5 µM
[40] = tested on: U-251; assay: Induction of apoptosis in human U-251 cells assessed as viable cells at 2.5 uM measured after 48 hrs by Annexin V/PI analysis (reference value: 96.2%); type: functional; conditions: read-out: Activity
[41] = tested on: U-251; assay: Antiproliferative activity against human U-251 cells assessed as inhibition rate at 20 uM measured after 72 hrs by MTT assay relative to control; type: functional
[42] = tested on: U-87 MG; assay: Antiproliferative activity against human U87 cells assessed as inhibition rate at 20 uM measured after 72 hrs by MTT assay relative to control; type: functional, U-87MG ATCC

IC50 [1]: 4.4 µM
IC50 [2]: 1.6 µM
SMILES: COc1ccc(C(=O)/C=C/c2cccc(C(=O)N3CCN(Cc4ccccc4)C34COC4)c2)cc1OC

IC50 [1]: 14.9 µM
IC50 [2]: 7.6 µM
SMILES: COc1cc(C(=O)/C=C/c2ccc(C(=O)N3CCN(Cc4ccccc4)C34COC4)o2)cc(OC)c1OC

IC50 [1]: 3.5 µM
IC50 [2]: 1.7 µM
SMILES: COc1ccc(C(=O)/C=C/c2ccc(C(=O)N3CCN(Cc4ccccc4)C34COC4)cc2)c(OC)c1OC

IC50 [1]: 4 µM
IC50 [2]: 2.1 µM
SMILES: COc1cc(C(=O)/C=C/c2ccc(C(=O)N3CCN(Cc4ccccc4)C34COC4)s2)cc(OC)c1OC

IC50 [1]: 5.5 µM
IC50 [2]: 4.9 µM
SMILES: COc1cc(C(=O)/C=C/c2ccccc2C(=O)N2CCN(Cc3ccccc3)C23COC3)cc(OC)c1OC

IC50 [1]: 7.3 µM
IC50 [2]: 5.5 µM
SMILES: O=C(/C=C/c1ccc(C(=O)N2CCN(Cc3ccccc3)C23COC3)cc1)c1cccnc1

IC50 [1]: 10.4 µM
IC50 [2]: 7.4 µM
SMILES: O=C(/C=C/c1ccccc1C(=O)N1CCN(Cc2ccccc2)C12COC2)c1ccccc1

IC50 [1]: 3.2 µM
IC50 [2]: 2.4 µM
SMILES: COc1ccc(C(=O)/C=C/c2ccc(C(=O)N3CCN(Cc4ccccc4)C34COC4)cc2)cc1

IC50 [1]: 3.7 µM
IC50 [2]: 2.2 µM
SMILES: COc1cc(/C=C/C(=O)c2ccc(C(=O)N3CCN(Cc4ccccc4)C34COC4)cc2)cc(OC)c1OC

Papp [5]: 131 nm/s
IC50 [1]: 2.1 µM
IC50 [2]: 0.9 µM
SMILES: COc1cc(C(=O)/C=C/c2ccc(C(=O)N3CCN(Cc4ccccc4)C34COC4)cc2)cc(OC)c1OC
Activity [3]: Active
Activity [4]: inactive
Activity [6]: inactive
Activity [7]: Active
Activity [8]: 0.2%
Activity [9]: Non-Toxic
Activity [10]: Dose-Dependent Effect
Activity [11]: Non-Toxic
Activity [12]: Active
Activity [13]: 16.4%
Activity [14]: Non-Toxic
Activity [15]: inactive
Activity [16]: Non-Toxic
Activity [17]: 67.5%
Activity [18]: inactive
viability at 5 µM [19]: 14.7%
Activity [20]: 8.2%
Activity [21]: inactive
viability at 1 µM [22]: 79.8%
Activity [23]: Non-Toxic
Activity [24]: 9.2%
Activity [25]: 0.1%
Activity [26]: Active
Activity [27]: inactive
Activity [28]: Active
Activity [29]: inactive
Activity [30]: 0.2%
Activity [31]: Dose-Dependent Effect
Activity [32]: Non-Toxic
Activity [33]: inactive
Activity [34]: 11.8%
Activity [35]: Non-Toxic
Activity [36]: Dose-Dependent Effect
inhibition [37]: Dose-Dependent Effect
Activity [38]: 17.7%
Activity [39]: inactive
viability at 2.5 µM [40]: 74.2%

IC50 [1]: 5.2 µM
IC50 [2]: 4.2 µM
SMILES: O=C(/C=C/c1ccc(C(=O)N2CCN(Cc3ccccc3)C23COC3)cc1)c1ccccn1

IC50 [1]: 6.1 µM
IC50 [2]: 5.4 µM
SMILES: N#Cc1cccc(C(=O)/C=C/c2ccc(C(=O)N3CCN(Cc4ccccc4)C34COC4)cc2)c1

IC50 [1]: 2.2 µM
IC50 [2]: 1.1 µM
SMILES: COc1cc(C(=O)/C=C/c2cccc(C(=O)N3CCN(Cc4ccccc4)C34COC4)c2)cc(OC)c1OC

IC50 [1]: > 10 µM
IC50 [2]: 11 µM
SMILES: COc1ccc(C(=O)/C=C/c2ccccc2C(=O)N2CCN(Cc3ccccc3)C23COC3)c(OC)c1OC

Papp [5]: 234 nm/s
IC50 [1]: 11.5 µM
IC50 [2]: 8.6 µM
SMILES: O=C(CCl)N1CCN(Cc2ccccc2)C12COC2
inhibition at 20 µM [41]: 87.7%
inhibition at 20 µM [42]: 90.1%

IC50 [1]: 6.7 µM
IC50 [2]: 6.6 µM
SMILES: O=C(/C=C/c1ccc(C(=O)N2CCN(Cc3ccccc3)C23COC3)s1)c1ccncc1

IC50 [1]: 2 µM
IC50 [2]: 1.2 µM
SMILES: COc1ccc(C(=O)/C=C/c2cccc(C(=O)N3CCN(Cc4ccccc4)C34COC4)c2)c(OC)c1OC
